According to patent publication US20110318470A1, “Method For Improving Plant Health” (priority 2008, published 2011):

Tested on: Wheat plants (Trificum aestivum cv. Monopol)
Experiment: Growth-promoting effect on wheat plants after foliar treatment
Type: in vivo
Settings: for Shoot-DW / Shoot-FW: 750 l/ha, greenhouse, mean of six pots with ten plants; for Shoot-DW / Shoot-FW / Shoot-DW % of control / Shoot-FW % of control: harvest after 18 days; for Shoot-DW % of control / Shoot-FW % of control: control = 100.0; for plant health (higher yields and increased plant vigor based on fresh- and dry weights) / tillering: wheat, foliar treatment, 15 and 7.5 g ai/ha
Procedure: Wheat plants (Trificum aestivum cv. Monopol) were grown in soil with ten plants per pot (13 cm diameter) under greenhouse conditions. Plants at the 2nd leaf stage were sprayed with aqueous solutions of formulated compounds: • Compound 1=4-Fluoro-N-[2-(2-fluoro-benzoylamino)-1-methylcarbamoyl-ethyl]-2-trifluoromethyl-benzamide • Compound 2=4-Fluoro-N-[2-(3-fluoro-2-methyl-phenyl)-2-hydroxy-1-methylcarbamoyl-ethyl]-2-trifluoromethyl-benzamide The compounds were applied at two different dose rates (15 and 7.5 g ai/ha) and the spray volume was 750 l/ha. Six replicate pots with ten plants each were used per treatment. After 18 days plants were harvested and growth parameters were determined. The recorded parameters were fresh weight (FW) and dry weight (DW). Mean values of results, standard deviation (SD) and percentage to control were calculated.

[1] = 7.5 g ai/ha foliar spray at 2nd leaf stage
[2] = 15 g ai/ha foliar spray at 2nd leaf stage

SMILES: CNC(=O)C(NC(=O)c1ccc(F)cc1C(F)(F)F)C(O)c1cccc(F)c1C (centres unmarked) [Compound 2, 4-Fluoro-N-[2-(3-fluoro-2-methyl-phenyl)-2-hydroxy-1-methylcarbamoyl-ethyl]-2-trifluoromethyl-benzamide]
- Shoot-DW [1]: 3.9 g
- Shoot-FW [1]: 40.2 g
- Shoot-DW % of control (7.5 g ai/ha foliar spray): 138.6 % of control
- Shoot-FW % of control (7.5 g ai/ha foliar spray): 131.4 % of control
- Shoot-DW [2]: 3.9 g
- Shoot-FW [2]: 40.6 g
- Shoot-DW % of control (15 g ai/ha foliar spray): 138.2 % of control
- Shoot-FW % of control (15 g ai/ha foliar spray): 132.8 % of control
- plant health (higher yields and increased plant vigor based on fresh- and dry weights): strongly increase the plant health
- tillering: increase in tillering

SMILES: CNC(=O)C(CNC(=O)c1ccccc1F)NC(=O)c1ccc(F)cc1C(F)(F)F (centres unmarked) [Compound 1, 4-Fluoro-N-[2-(2-fluoro-benzoylamino)-1-methylcarbamoyl-ethyl]-2-trifluoromethyl-benzamide]
- Shoot-DW [1]: 3.8 g
- Shoot-FW [1]: 40.6 g
- Shoot-DW % of control (7.5 g ai/ha foliar spray): 134.9 % of control
- Shoot-FW % of control (7.5 g ai/ha foliar spray): 132.7 % of control
- Shoot-DW [2]: 3.7 g
- Shoot-FW [2]: 38.8 g
- Shoot-DW % of control (15 g ai/ha foliar spray): 131.0 % of control
- Shoot-FW % of control (15 g ai/ha foliar spray): 126.9 % of control
- plant health (higher yields and increased plant vigor based on fresh- and dry weights): strongly increase the plant health
- tillering: increase in tillering
